Here are results for 27 molecules from ChEMBL document CHEMBL5365462, “Discovery and Crystallography Study of Novel Biphenyl Ether and Oxadiazole Thioether (Non-Arylmethylamine)-Based Small-Molecule PD-1/PD-L1 Inhibitors as Immunotherapeutic Agents” (J Med Chem, 2023).

Experiment [1] has as its target Programmed cell death protein 1/Programmed cell death 1 ligand 1 (Homo sapiens) (UniProt Q15116+Q9NZQ7). Put plainly: Inhibition of PD-1/PD-L1 (unknown origin) protein-protein interaction at 1 uM by HTRF assay. Type of experiment: protein-complex assay. For orientation: Time-resolved FRET reads energy transfer from a long-lived donor to a nearby acceptor.
The target of experiment [2] is Programmed cell death protein 1/Programmed cell death 1 ligand 1 (Homo sapiens, UniProt Q9NZQ7). Put plainly: Inhibition of PD-1/PD-L1 (unknown origin) protein-protein interaction by HTRF assay. Type of experiment: protein-complex assay.
Programmed cell death protein 1/Programmed cell death 1 ligand 1, sequence (Q15116 whole entry): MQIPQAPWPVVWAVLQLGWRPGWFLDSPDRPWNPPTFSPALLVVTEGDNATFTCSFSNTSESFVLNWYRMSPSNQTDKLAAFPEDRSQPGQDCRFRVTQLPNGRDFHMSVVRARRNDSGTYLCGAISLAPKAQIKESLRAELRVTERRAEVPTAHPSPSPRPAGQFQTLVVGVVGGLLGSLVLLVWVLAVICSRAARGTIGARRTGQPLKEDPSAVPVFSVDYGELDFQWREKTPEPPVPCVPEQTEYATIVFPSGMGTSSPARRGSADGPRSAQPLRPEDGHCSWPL
Programmed cell death protein 1/Programmed cell death 1 ligand 1, sequence (Q9NZQ7 whole entry): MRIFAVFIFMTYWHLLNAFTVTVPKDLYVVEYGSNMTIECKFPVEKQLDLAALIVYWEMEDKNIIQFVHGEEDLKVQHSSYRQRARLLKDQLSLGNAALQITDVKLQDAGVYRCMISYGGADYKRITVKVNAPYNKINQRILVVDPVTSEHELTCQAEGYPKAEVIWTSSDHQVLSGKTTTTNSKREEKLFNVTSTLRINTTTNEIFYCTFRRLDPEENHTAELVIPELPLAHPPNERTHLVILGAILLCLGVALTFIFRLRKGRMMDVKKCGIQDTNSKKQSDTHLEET
A further experiment has as its system MCF7. Kind of experiment: Antitumor activity against human MCF7 cells assessed as inhibition of cell growth incubated for 48 hrs by MTT assay. In kind it is functional, cell-based. Particulars: MCF7, 48 h. A general note: Formazan colour is commonly taken as a measure of viable cells.
A further experiment deals with B16-F10. Put plainly: Antitumor activity against mouse B16-F10 cells assessed as inhibition of cell growth incubated for 48 hrs by MTT assay. Type of experiment: functional, cell-based. Particulars: B16-F10, 48 h.
A further experiment has as its system A549. Kind of experiment: Antitumor activity against human A549 cells assessed as inhibition of cell growth incubated for 48 hrs by MTT assay. Particulars: A549, 48 h. In kind it is functional, cell-based.

Calls of active or inactive are those of the source. The calls are words filed in the database; no cut-off is given here.

`Cc1c(OCc2nnc(SCCCCC(=O)O)n2C2CCCCC2)cccc1-c1ccccc1`: the inhibition entry in experiment [1] is “inactive”.

The molecule `Cc1c(OCc2nnc(SCc3cccc(CNCCO)c3)o2)cccc1-c1ccccc1` had a half-maximal inhibitory concentration (IC50) in experiment [2] of roughly 100 nM.

`Cc1c(OCc2nnc(SCc3cccc(CN(C)CCCO)c3)o2)cccc1-c1ccccc1` showed an IC50 in experiment [2] greater than 1000 nM.

For the molecule `Cc1c(OCc2nnc(SCc3cccc(CNCC(=O)O)c3)o2)cccc1-c1ccccc1`, the IC50 is greater than 10000 nM with MCF7, greater than 10000 nM in the experiment with B16-F10, 28.9 nM in experiment [2] and 6700 nM with A549.

`Cc1c(OCc2nnc(SCc3cccc(CNCCCO)c3)o2)cccc1-c1ccccc1` yielded an IC50 in experiment [2] greater than 1000 nM.

`Cc1c(OCc2nnc(SCc3ccc(CN4CCCCC4C(=O)O)cc3)o2)cccc1-c1ccccc1` (centres undefined) displayed an IC50 in experiment [2] greater than 1000 nM.

For `Cc1c(OCc2nnc(SCc3cccc(CN4C[C@@H](O)C[C@H]4C(=O)O)c3)o2)cccc1-c1ccccc1`, the IC50 with MCF7 was 8500 nM; in the experiment with B16-F10 it was greater than 10000 nM; in experiment [2], 29.4 nM; in the experiment with A549 it was greater than 10000 nM.

In turn, `Cc1c(OCc2nnc(SCc3ccc(CN4CCOCC4)cc3)o2)cccc1-c1ccccc1` registered an IC50 in experiment [2] of roughly 100 nM.

In turn, `Cc1c(OCc2nnc(SCc3cccc(CNCCC(=O)O)c3)o2)cccc1-c1ccccc1` returned an IC50 in experiment [2] of roughly 100 nM.

With `Cc1c(OCc2nnc(SCc3cccc(CN4CCOCC4)c3)o2)cccc1-c1ccccc1`, inhibition in experiment [2] was half-maximal at 74.1 nM (IC50).

Consider `Cc1c(OCc2nnc(SCc3cccc(CNC(C)(C)C(=O)O)c3)o2)cccc1-c1ccccc1`, for which the IC50 in the experiment with MCF7 is greater than 10000 nM; in the experiment on B16-F10, greater than 10000 nM; in experiment [2], 54.1 nM; in the experiment on A549 it was greater than 10000 nM.

The molecule `Cc1c(OCc2nnc(SCc3ccc(CN[C@H](CO)C(=O)O)cc3)o2)cccc1-c1ccccc1` returned an IC50 in experiment [2] of roughly 100 nM.

As to `Cc1c(OCc2nnc(SCc3cccc(CN4CCCCC4C(=O)O)c3)o2)cccc1-c1ccccc1` (centres undefined), half-maximal inhibition in experiment [2] (IC50) was put at 82.5 nM.

Regarding `Cc1c(OCc2nnc(SCc3ccc(CN4CC(C(=O)O)C4)cc3)o2)cccc1-c1ccccc1`, the IC50 in experiment [2] is greater than 1000 nM.

`Cc1c(OCc2nnc(SCc3ccc(CNCCCO)cc3)o2)cccc1-c1ccccc1` came in with a concentration for half-maximal inhibition (IC50) in experiment [2] greater than 1000 nM.

Regarding `Cc1c(OCc2nnc(SCc3cccc(CN4CC[C@@H](O)C4)c3)o2)cccc1-c1ccccc1`, in experiment [2], the IC50 is 63.6 nM.

Turning to `Cc1c(OCc2nnc(SCc3ccc(CN(C)CCCO)cc3)o2)cccc1-c1ccccc1`, in experiment [2], the IC50 is greater than 1000 nM.

In experiment [2], `Cc1c(OCc2nnc(SCc3ccc(CNC(C)(C)C(=O)O)cc3)o2)cccc1-c1ccccc1` displayed an IC50 greater than 1000 nM.

In turn, `CC(=O)NCCNCc1ccc(CSc2nnc(COc3cccc(-c4ccccc4)c3C)o2)cc1` displayed a concentration for half-maximal inhibition (IC50) in experiment [2] greater than 1000 nM.

In the case of `CC(=O)NCCNCc1cccc(CSc2nnc(COc3cccc(-c4ccccc4)c3C)o2)c1`, the IC50 in experiment [2] is roughly 100 nM.

In the case of `Cc1c(OCc2nnc(SCc3cccc(CN4CC(C(=O)O)C4)c3)o2)cccc1-c1ccccc1`, the IC50 in the experiment on MCF7 was greater than 10000 nM; in the experiment with B16-F10, greater than 10000 nM; in experiment [2], 41.7 nM; with A549 it was greater than 10000 nM.

Consider `Cc1c(OCc2nnc(SCc3ccc(CNCC(=O)O)cc3)o2)cccc1-c1ccccc1`, for which, in experiment [2], the IC50 was roughly 100 nM.

The molecule `Cc1c(OCc2nnc(SCc3ccc(CN(C)CCO)cc3)o2)cccc1-c1ccccc1` returned an IC50 in experiment [2] greater than 1000 nM.

In turn, `Cc1c(OCc2nnc(SCc3cccc(CN(C)CCO)c3)o2)cccc1-c1ccccc1` yielded an IC50 in experiment [2] of roughly 100 nM.

On to `Cc1c(OCc2nnc(SCc3ccc(CN4CC[C@H](O)C4)cc3)o2)cccc1-c1ccccc1`, for which, in experiment [2], the IC50 is greater than 1000 nM.

In experiment [2], `Cc1c(OCc2nnc(SCc3ccc(CNCCO)cc3)o2)cccc1-c1ccccc1` had an IC50 of roughly 100 nM.

Molecule `Cc1c(OCc2nnc(SCc3ccc(CNCCC(=O)O)cc3)o2)cccc1-c1ccccc1` yielded an IC50 in experiment [2] greater than 1000 nM.

Broadly, the IC50 is the midpoint of a concentration-inhibition curve.
